In US20020094988A1, “Method of treating erectile dysfunction” (priority 1999, published 2002):
Counter-ions that a name gives are not always drawn.

Tested on: person with erectile dysfunction
Test: Erectile strength rated on a unilinear scale of 1 to 10 in treated patients
Type: in vivo, human
Excerpt: Subsequent discontinuation of Pavabid and Trental and placed on Viagra alone.

## CCCc1nn(C)c2c(=O)[nH]c(-c3cc(S(=O)(=O)N4CCN(C)CC4)ccc3OCC)nc12 [Viagra, sildenafil citrate]
Example 1: person, rated 3 before treatment
  erectile strength: 7
Example 2: person, rated 2 prior to treatment
  erectile strength: 6
